Measurements reported in patent US20110280940A1, “Di-Vanilloyl And Tri-Vanilloyl Derivatives For Use In Anti-Cancer Therapy” (priority 2008, published 2011).

Key:
U373-MG glioma cell line = assay: Cellular imaging (quantitative videomicroscopy), global growth ratio, U373; type: cell-based; details: Homo sapiens, 50 μM, 72 h, read-out: Global Grow Ratio Treated/Ct (GGR T/Ct) determined by Video Quantitative microscopy, U373
From the text: (§1) As the MTT test is based on the mitochondria functions, we also investigated the effects of the di- and tri-vanilloyl derivatives according to the invention on cell proliferation, migration and morphology by means of a cellular imaging approach (Debeir et al., Cytometry 60:29-40, 2004; Debeir et al., IEEE Trans Med Imaging 24:697-711, 2005) either in the human U373-MG glioma cell line, which is apoptosis-resistant but autophagy-sensitive (Lefranc F et al., Neurosurgery 2008) and in the human A549 non-small-cell-lung cancer cell line, which is apoptosis-resistant and autophagy-resistant (Mijatovic T et al., Neoplasia 2006, May; 8(5):402-12).
(§2) Investigations have also been performed in human normal fibroblasts (WS1 and WI38—see Tables 4 and 5). Cellular imaging relied on the use of computer-assisted phase-contrast microscopy making possible to film the behaviour of living cells in culture dishes for several days.
(§3) Cells were seeded in a 25-cm^2 flask at a low density, treated or not with the vanilloyl-esters invention (at a concentration of 50 μM) and filmed thereafter for a period of 72 h. The experiment was conducted in quadruplicates (in duplicates for DLT-95 compounds).
(§4) The behaviour of the cells, in terms of morphology, growth and death were thus investigated. The effect on the overall growth was measured by counting the number of cells on the first (0 h) and the last image (72 h) of each film. The global growth ratio (GGR) was then deduced by dividing the number of cells on the last image by the number of cells on the first image. The ratio GGRtreated cells/GGRcontrol cells, was further calculated thereby obtaining a value that describes the effect of compounds of the present invention on the overall cell growth. The methodology is fully described and validated in Debeir et al., 2008, Exp Cell Res 314:2985-2998 and Mathieu et al., 2009, J Cell Mol Med, Feb. 20, 2009.
(§5) Illustrative pictures (time=0 h and 72 h) of glioblastoma and normal fibroblast cell line left untreated or treated with poly-vanillic compounds according to the invention (50 μM) are provided in FIG. 1 (U373 glioblastoma) and FIG. 2 (normal fibroblasts). The GGR parameter analyses confirmed the marked impairment of cell growth in both cancer cell lines of the poly-vanillic compounds according to the invention (Table 5).

[1] = test system: A549 non-small-cell-lung cancer cell line; assay: Cellular imaging (quantitative videomicroscopy), global growth ratio, A549; type: cell-based; details: Homo sapiens, 72 h, read-out: Global Grow Ratio Treated/Ct (GGR T/Ct) determined by Video Quantitative microscopy, A549
From the text: as §1, §2, §3, §4, §5

WI38 normal fibroblasts = assay: Cellular imaging (quantitative videomicroscopy), global growth ratio, WI38; type: cell-based, human; details: 50 μM, 72 h
From the text: as §1
(§6) Investigations have also been performed in human normal fibroblasts (WS1 and WI38—see Tables 4 and 5). Cellular imaging relied on the use of computer-assisted phase-contrast microscopy making possible to film the behaviour of living cells in culture dishes for several days. […]
(§7) The behaviour of the cells, in terms of morphology, growth and death were thus investigated. The effect on the overall growth was measured by counting the number of cells on the first (0 h) and the last image (72 h) of each film. […] The ratio GGRtreated cells/GGRcontrol cells, was further calculated thereby obtaining a value that describes the effect of compounds of the present invention on the overall cell growth. […]

WS1 normal fibroblasts = assay: Cellular imaging (quantitative videomicroscopy), global growth ratio, WS1; type: cell-based, human; details: 50 μM, 72 h
From the text: as §1, §6, §7

cancer cell lines = assay: Flow cytometry analyses of pro-autophagic and pro-apoptotic effects; type: cell-based, human; details: cancer cell lines studied
From the text: (§8) The compounds of the invention were subsequently evaluated for their 1) anti-proliferative effect (by means of the colorimetric MTT assay), 2) pro-autophagic and pro-apoptotic effect (by means of flow cytometry analyses), and 3) anti-migratory effect (by means of quantitative videomicroscopy), in the following human cancer cell-lines: a) U373, T98G and Hs683 glioblastoma cells, b) VM21 and VM48 melanoma cells, c) PC-3 prostate cancer cells, d) MCF-7 breast cancer cells, e) LoVo colon cancer cells, f) OE21 oesophageal cancer cells, and g) A549 NSCLC cancer cells, as well as in human WS1 and WI38 normal fibroblasts (i.e. non-cancer cells).

[2] = test system: cancer cells versus normal fibroblasts; assay: Anti-proliferative, anti-migratory and anti-kinase effects, cancer cells versus normal fibroblasts; type: cell-based, human; details: anti-proliferative
From the text: as §8
The best current hits, DLT12 and DLT4, display anti-proliferative, anti-migratory effects and anti-kinase effects which are ˜10 times more pronounced in cancer cells than in normal fibroblasts. […] FIG. 1 illustrates the data obtained with respect to the human U373 glioblastoma model, while FIG. 2 illustrates the data obtained in human normal fibroblasts. […] DLT-95 and its derivatives DLT-95-F and DLT-95-Cl were also shown to have a significant effect on the proliferation 7 different human cancer cell-lines.

VM21 melanoma cells = assay: MTT colorimetric assay, overall cell growth, VM21; type: cell-based, human; details: Homo sapiens; MTT, 72 hours of incubation; read-out: In Vitro IC50 Growth Inhibitory Values, VM21
Outline: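 Growth is measured as remaining living cells relative to untreated controls after 72 h at 37 °C with compound at 10^-8 to 10^-4 M. Readout is MTT formazan absorbance at 570 nm.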

VM48 melanoma cells = assay: MTT colorimetric assay, overall cell growth, VM48; type: cell-based, human; details: Homo sapiens; MTT, 72 hours of incubation; read-out: In Vitro IC50 Growth Inhibitory Values, VM48
CDK5/p25 = target: T1, CDK5/p25 (Homo sapiens, UniProt Q00535); assay: Kinase activity assay, CDK5; type: biochemical; details: 10 μM, 1% DMSO, 15 μM ATP; residual activity
T1 construct: made in house
Experimental: (§9) Buffer A: 10 mM MgCl2, 1 mM EGTA, 1 mM DTT, 25 mM Tris-HCl pH 7.5, 50 μg heparin/ml. Buffer C: 60 mM β-glycerophosphate, 15 mM p-nitrophenylphosphate, 25 mM Mops (pH 7.2), 5 mM EGTA, 15 mM MgCl2, 1 mM DTT, 1 mM sodium vanadate, 1 mM phenyl phosphate.
(§10) Kinase activities were assayed in Buffer A or C, at 30° C., at a final ATP concentration of 15 μM. Blank values were subtracted and activities expressed in % of the maximal activity, i.e. in the absence of inhibitors. Controls were performed with appropriate dilutions of DMSO.
(§11) CDK1/cyclin B (M phase starfish oocytes, native), CDK2/cyclin A, CDK2/cyclin E, CDK5/p25 and CDK7/cyclin H (human, recombinant) were prepared as previously described (Leclerc et al., 2001, J. Biol. Chem. 2001, 276, 251-260; Bach et al., 2005, J Biol Chem 280: 31208-31219). Their kinase activity was assayed in buffer C, with 1 mg histone H1/ml, in the presence of 15 μM [gamma-^33P] ATP (3,000 Ci/mmol; 10 mCi/ml) in a final volume of 30 μl. After 30 min incubation at 30° C., 25 μl aliquots of supernatant were spotted onto 2.5×3 cm pieces of Whatman P81 phosphocellulose paper, and, 20 sec later, the filters were washed five times (for at least 5 min each time) in a solution of 10 ml phosphoric acid/liter of water. The wet filters were counted in the presence of 1 ml ACS (Amersham) scintillation fluid.

GSK-3 = assay: Kinase activity assay, GSK3; type: biochemical, porcine; details: 10 μM, 1% DMSO, 15 μM ATP; residual activity
Experimental: as §9, §10
GSK-3 (porcine brain, native) was assayed, as described for CDK1 but in Buffer A and using a GSK-3 specific substrate (GS-1: […]pEDEEE) (Seq. ID NO 1) (pS stands for phosphorylated serine) (Primot et al., 2000, Protein Expr. & Purif. 20 (3), 394-404). GS-1 was synthesized by Millegen (Labege, France).

pfGSK3 = pfGSK3 (Plasmodium falciparum, UniProt O77344); assay: Kinase activity assay, pfGSK3; type: biochemical; details: 10 μM, 1% DMSO, 15 μM ATP; residual activity
Experimental: as §9, §10

CK1 = assay: Kinase activity assay, CK1; type: biochemical, porcine; details: 10 μM, 1% DMSO, 15 μM ATP; residual activity
Experimental: as §9, §10
CK1 (porcine brain, native) was assayed as described for CDK1 but using the CK1-specific peptide substrate […]pSAYSITA (Seq. ID NO 2) (Reinhardt et al., 2007, Protein Expr. & Purif. 54, 101-109), obtained from Millegen (Labege, France).

DYRK1A = DYRK1A (Rattus norvegicus, UniProt Q63470); assay: Kinase activity assay, DYRK1A (GST fusion, myelin basic protein substrate); type: biochemical
Experimental: as §9, §10
DYRK1A (rat, recombinant, expressed in E. coli as a GST fusion protein) was purified by affinity chromatography on glutathione-agarose and assayed as described for CDK1/cyclin B using myelin basic protein (1 mg/ml) as a substrate.

Erk2 = Erk2 (Rattus norvegicus, UniProt P63086); assay: Kinase activity assay, Erk2; type: biochemical; details: 10 μM, 1% DMSO, 15 μM ATP; residual activity
Experimental: as §9, §10
Erk2 (rat, recombinant) was assayed as described for CDK1 but using the specific substrate Ets1 (amino acids 1-138) in buffer A.

CDK2/cyclin A = target: T2, CDK2/cyclin A (Homo sapiens, UniProt P24941); assay: Kinase activity assay, CDK2A; type: biochemical; details: 10 μM, 1% DMSO, 15 μM ATP; residual activity
T2 construct: made in house
Experimental: as §9, §10, §11

Sequence of pfGSK3 (O77344 1-440): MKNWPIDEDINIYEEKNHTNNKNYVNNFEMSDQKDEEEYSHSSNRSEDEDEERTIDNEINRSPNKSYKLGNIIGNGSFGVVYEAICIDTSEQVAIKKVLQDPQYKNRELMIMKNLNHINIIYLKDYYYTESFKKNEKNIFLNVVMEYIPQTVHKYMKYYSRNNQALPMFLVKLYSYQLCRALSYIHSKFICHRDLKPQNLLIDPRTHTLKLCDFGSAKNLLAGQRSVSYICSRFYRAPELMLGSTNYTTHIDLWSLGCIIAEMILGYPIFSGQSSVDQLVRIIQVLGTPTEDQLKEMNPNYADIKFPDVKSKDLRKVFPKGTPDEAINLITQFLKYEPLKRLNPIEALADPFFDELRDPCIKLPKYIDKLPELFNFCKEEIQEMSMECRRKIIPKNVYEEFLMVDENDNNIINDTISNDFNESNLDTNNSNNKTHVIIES
T1 sequence (Q00535 whole entry): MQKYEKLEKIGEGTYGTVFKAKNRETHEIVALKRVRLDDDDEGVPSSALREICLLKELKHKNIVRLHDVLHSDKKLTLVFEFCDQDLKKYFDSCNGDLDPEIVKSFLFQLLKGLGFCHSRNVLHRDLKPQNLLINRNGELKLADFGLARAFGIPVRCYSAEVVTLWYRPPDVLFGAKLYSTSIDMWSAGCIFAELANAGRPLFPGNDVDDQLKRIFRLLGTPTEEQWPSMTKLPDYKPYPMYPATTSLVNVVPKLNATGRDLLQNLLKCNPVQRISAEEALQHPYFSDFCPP
T1 sequence (Q15078 99-307 partner limits assumed): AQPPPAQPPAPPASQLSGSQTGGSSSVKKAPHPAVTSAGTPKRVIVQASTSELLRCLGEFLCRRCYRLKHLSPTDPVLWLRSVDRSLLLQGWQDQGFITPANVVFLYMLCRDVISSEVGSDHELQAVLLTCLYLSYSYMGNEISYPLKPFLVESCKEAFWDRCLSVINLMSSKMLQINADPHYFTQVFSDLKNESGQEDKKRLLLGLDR
Sequence of Erk2 (P63086 whole entry): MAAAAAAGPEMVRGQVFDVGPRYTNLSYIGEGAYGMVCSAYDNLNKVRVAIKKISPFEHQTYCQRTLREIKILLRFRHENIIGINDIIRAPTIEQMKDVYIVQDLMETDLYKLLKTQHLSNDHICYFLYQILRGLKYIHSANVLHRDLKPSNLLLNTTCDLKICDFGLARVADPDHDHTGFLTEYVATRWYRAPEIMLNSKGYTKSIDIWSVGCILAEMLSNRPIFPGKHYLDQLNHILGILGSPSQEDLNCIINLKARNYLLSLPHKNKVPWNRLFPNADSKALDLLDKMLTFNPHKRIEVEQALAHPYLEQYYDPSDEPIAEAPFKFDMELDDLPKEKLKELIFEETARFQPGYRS

SMILES	activity at 50 µM (U373-MG glioma cell line)	activity at 50 µM [1]	Global Grow Ratio Treated/Ct (GGR T/Ct) determined by Video Quantitative microscopy, WI38 (WI38 normal fibroblasts)	Global Grow Ratio Treated/Ct (GGR T/Ct) determined by Video Quantitative microscopy, WS1 (WS1 normal fibroblasts)	pro-autophagic or pro-apoptotic effects (cancer cell lines)	effects more pronounced in cancer cells than in normal fibroblasts [2]	IC50 (VM21 melanoma cells)	IC50 (VM48 melanoma cells)	% ENZYMATIC ACTIVITY, CDK5 (CDK5/p25)	% ENZYMATIC ACTIVITY, GSK3 (GSK-3)	% ENZYMATIC ACTIVITY, pfGSK3 (pfGSK3)	% ENZYMATIC ACTIVITY, Ckone (CK1)	inhibition at 10 µM (DYRK1A)	% ENZYMATIC ACTIVITY, Dyrk1A (DYRK1A; 10 μM, 1% DMSO, 15 μM ATP, residual activity)	% ENZYMATIC ACTIVITY, Erk2 (Erk2)	% ENZYMATIC ACTIVITY, CDK2A (CDK2/cyclin A)
COc1cc(C(=O)O[C@@H]2CCCC[C@H]2OC(=O)c2ccc(O)c(OC)c2)ccc1O (racemic) [DLT4, trans-cyclohexane-1,2-diyl bis-(4-hydroxy-3-methoxybenzoate)]	20%	20%	0.9	1.0	does not induce pro-autophagic or pro-apoptotic effects	~10 times										
COc1cc(C(=O)OC2CCCC(OC(=O)c3ccc(O)c(OC)c3)C2)ccc1O (mixture of isomers) [DLT5, cis/trans-cyclohexane-1,3-diyl bis-(4-hydroxy-3-methoxybenzoate)]	20%	10%					47 µM	47 µM	95%	81%	89%	73%	26%	74%	92%	100%
